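In this assay, cells in 96-well plates receive the compound at five concentrations for 48 hours. Endpoints are linearly interpolated between the surrounding concentrations. GI50 marks 50% less growth. At the TGI there is no net growth.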
Key:
Test in all cases: inhibition of tumour cell growth, NCI panel, 48 h
[1] = tested on: 786-0 renal
[2] = tested on: SK-OV-3 ovarian
[3] = tested on: K-562 leukemia
[4] = tested on: NCI-H23 lung
[5] = tested on: OVCAR-8 ovarian
[6] = tested on: T-47D breast
[7] = tested on: HOP-62 NSCLC
[8] = tested on: SF-295 CNS
[9] = tested on: MDA-MB-435
[10] = tested on: M14 melanoma
[11] = tested on: MDA-MB-231 breast
[12] = tested on: NCI-H522 lung
[13] = tested on: A549 NSCLC
[14] = tested on: NCI-H226 lung
[15] = tested on: HCT-15 colon
[16] = tested on: SK-MEL-28 melanoma
[17] = tested on: HCC-2998 colon
[18] = tested on: SR leukemia
[19] = tested on: MCF7 breast
[20] = tested on: TK-10 renal
[21] = tested on: OVCAR-3 ovarian
[22] = tested on: CAKI-1 renal
[23] = tested on: EKVX NSCLC
[24] = tested on: NCI-H460 lung
[25] = tested on: SK-MEL-2 melanoma
[26] = tested on: NCI/ADR-RES ovarian
[27] = tested on: MALME-3M melanoma
[28] = tested on: HOP-92 NSCLC
[29] = tested on: HL-60(TB) leukemia
[30] = tested on: U251 CNS
[31] = tested on: OVCAR-4 ovarian
[32] = tested on: SK-MEL-5 melanoma
[33] = tested on: SNB-75 CNS
[34] = tested on: HT29 colon
[35] = tested on: ACHN renal
[36] = tested on: HS 578T breast
[37] = tested on: KM12 colon
[38] = tested on: BT-549 breast
[39] = tested on: SNB-19 CNS
[40] = tested on: RPMI-8226 leukemia
[41] = tested on: COLO 205 colon
[42] = tested on: UO-31 renal
[43] = tested on: SW-620 colon
[44] = tested on: CCRF-CEM leukemia
[45] = tested on: PC-3 prostate
[46] = tested on: OVCAR-5 ovarian
[47] = tested on: IGROV1 ovarian
[48] = tested on: SF-268 CNS
[49] = tested on: DU-145 prostate
[50] = tested on: RXF 393 renal
[51] = tested on: SN12C renal
[52] = tested on: LOX IMVI melanoma
[53] = tested on: A498 renal
[54] = tested on: UACC-257 melanoma
[55] = tested on: HCT-116 colon
[56] = tested on: UACC-62 melanoma
[57] = tested on: SF-539 CNS
[58] = tested on: MOLT-4 leukemia

COc1cc(OC)cc(Oc2nc3cc(N)cc(N)c3nc2-c2ccccc2)c1
TGI [1]: 11.4 µM
GI50 [2]: 3.49 µM
TGI [2]: 16.3 µM
GI50 [3]: 3.77 µM
TGI [3]: 32.4 µM
GI50 [4]: 1.69 µM
TGI [4]: 12.7 µM
GI50 [5]: 2.9 µM
TGI [5]: 16.3 µM
GI50 [6]: 2.37 µM
TGI [6]: 9.13 µM
GI50 [7]: 2.14 µM
TGI [7]: 12.8 µM
GI50 [8]: 2.21 µM
TGI [8]: 8.49 µM
GI50 [9]: 0.392 µM
TGI [9]: 1.83 µM
GI50 [10]: 1.6 µM
TGI [10]: 7.76 µM
GI50 [11]: 4.02 µM
TGI [11]: 21.8 µM
GI50 [12]: 0.891 µM
TGI [12]: 4.31 µM
GI50 [13]: 2.88 µM
TGI [13]: 13.2 µM
GI50 [14]: 6.55 µM
TGI [14]: 43 µM
GI50 [15]: 2.04 µM
TGI [15]: 12.4 µM
GI50 [16]: 3.18 µM
TGI [16]: 15.5 µM
GI50 [17]: 2.52 µM
TGI [17]: 13.7 µM
GI50 [18]: 1.85 µM
TGI [18]: 28.9 µM
GI50 [19]: 1.69 µM
TGI [19]: 4.53 µM
TGI [20]: 8.44 µM
GI50 [21]: 2.22 µM
TGI [21]: 8.65 µM
TGI [22]: 24.1 µM
GI50 [23]: 3.77 µM
TGI [23]: 19.3 µM
GI50 [24]: 2.92 µM
TGI [24]: 12.5 µM
GI50 [25]: 2.29 µM
TGI [25]: 10.2 µM
GI50 [26]: 1.13 µM
TGI [26]: 3.85 µM
GI50 [27]: 0.426 µM
TGI [27]: 5.09 µM
GI50 [28]: 1.36 µM
TGI [28]: 8.9 µM
GI50 [29]: 3.07 µM
TGI [29]: 25.9 µM
GI50 [30]: 2.6 µM
TGI [30]: 10.8 µM
GI50 [31]: 2.89 µM
TGI [31]: 16.2 µM
GI50 [32]: 1.89 µM
TGI [32]: 6.47 µM
GI50 [33]: 0.127 µM
TGI [33]: 2.67 µM
GI50 [34]: 4.37 µM
TGI [34]: 17.8 µM
TGI [35]: 17.9 µM
GI50 [36]: 1.32 µM
TGI [36]: 4.19 µM
GI50 [37]: 1.03 µM
TGI [37]: 6.07 µM
GI50 [38]: 1.49 µM
TGI [38]: 6.92 µM
GI50 [39]: 2.49 µM
TGI [39]: 12.5 µM
TGI [40]: 8.42 µM
GI50 [41]: 10.6 µM
TGI [41]: 22.4 µM
TGI [42]: 15.3 µM
GI50 [43]: 2.26 µM
TGI [43]: 10.2 µM
GI50 [44]: 1.97 µM
TGI [44]: 8.67 µM
TGI [45]: 17.4 µM
GI50 [46]: 3.24 µM
TGI [46]: 16.4 µM
GI50 [47]: 2.62 µM
TGI [47]: 12.3 µM
GI50 [48]: 1.75 µM
TGI [48]: 7.13 µM
TGI [49]: 25.1 µM
TGI [50]: 4.41 µM
TGI [51]: 22.3 µM
GI50 [52]: 2.95 µM
TGI [52]: 13 µM
TGI [53]: 14.4 µM
GI50 [54]: 2.19 µM
TGI [54]: 12.3 µM
GI50 [55]: 2.36 µM
TGI [55]: 10.1 µM
GI50 [56]: 4.04 µM
TGI [56]: 18 µM

O=C1/C(=C/c2cccc(O)c2)COc2ccccc21
TGI [1]: 14.5 µM
TGI [2]: 46.3 µM
TGI [3]: > 33.2 µM
TGI [4]: 18.1 µM
TGI [5]: 24.4 µM
TGI [6]: 21.1 µM
TGI [7]: 28.4 µM
TGI [8]: 33.4 µM
TGI [9]: 17.2 µM
TGI [10]: 13 µM
TGI [11]: 21.4 µM
TGI [12]: 5.82 µM
TGI [13]: 47.2 µM
TGI [14]: 32.4 µM
TGI [15]: 3.26 µM
TGI [16]: 11.9 µM
TGI [17]: 1.48 µM
TGI [18]: > 100 µM
TGI [19]: > 43.6 µM
TGI [20]: 31.2 µM
TGI [21]: 4.85 µM
TGI [22]: 11.9 µM
TGI [23]: 34 µM
TGI [24]: 54.6 µM
TGI [25]: 34.6 µM
TGI [26]: 5.25 µM
TGI [27]: 26.3 µM
TGI [28]: > 55.6 µM
TGI [29]: 63.8 µM
TGI [30]: 3.8 µM
TGI [31]: 21.8 µM
TGI [32]: 22.8 µM
TGI [33]: 34.5 µM
TGI [34]: 11.4 µM
TGI [35]: 3.89 µM
TGI [36]: 43.6 µM
TGI [37]: 7.09 µM
TGI [38]: 49.5 µM
TGI [39]: 21.8 µM
TGI [41]: 31.6 µM
TGI [42]: 24.8 µM
TGI [43]: 6.79 µM
TGI [44]: > 100 µM
TGI [45]: > 53.8 µM
TGI [46]: 26.6 µM
TGI [47]: 23.1 µM
TGI [48]: 40.8 µM
TGI [49]: 28.1 µM
TGI [50]: 29 µM
TGI [57]: 25.8 µM
TGI [51]: 19.8 µM
TGI [52]: 3.92 µM
TGI [53]: 34.7 µM
TGI [54]: 7.29 µM
TGI [55]: 3.32 µM
TGI [56]: 9.81 µM

COc1ccc(C2=C(c3cn(C)c4ccccc34)C(=O)NC2=O)cc1
GI50 [1]: > 25 µM
TGI [1]: > 25 µM
GI50 [2]: 24.3 µM
TGI [2]: > 25 µM
GI50 [3]: 3.89 µM
TGI [3]: > 25 µM
GI50 [4]: > 25 µM
TGI [4]: > 25 µM
GI50 [5]: > 25 µM
TGI [5]: > 25 µM
GI50 [6]: > 24.1 µM
TGI [6]: > 25 µM
GI50 [7]: > 23.1 µM
TGI [7]: > 25 µM
GI50 [8]: > 17 µM
TGI [8]: > 25 µM
GI50 [9]: 1.56 µM
TGI [9]: > 14.7 µM
GI50 [10]: 19.4 µM
TGI [10]: > 25 µM
GI50 [11]: > 25 µM
TGI [11]: > 25 µM
GI50 [12]: > 12.3 µM
TGI [12]: > 25 µM
GI50 [13]: 14.1 µM
TGI [13]: > 25 µM
GI50 [14]: > 22.3 µM
TGI [14]: > 25 µM
GI50 [15]: 6.05 µM
TGI [15]: > 25 µM
GI50 [16]: > 23 µM
TGI [16]: > 25 µM
GI50 [17]: > 23.1 µM
TGI [17]: > 25 µM
GI50 [18]: 6.14 µM
TGI [18]: > 25 µM
GI50 [19]: 8.03 µM
TGI [19]: > 25 µM
GI50 [20]: > 21 µM
TGI [20]: > 25 µM
GI50 [21]: 17 µM
TGI [21]: > 25 µM
GI50 [22]: > 22.3 µM
TGI [22]: > 25 µM
GI50 [24]: 11.1 µM
TGI [24]: > 25 µM
GI50 [25]: 14.2 µM
TGI [25]: > 25 µM
GI50 [26]: > 17.3 µM
TGI [26]: > 25 µM
GI50 [27]: > 25 µM
TGI [27]: > 25 µM
GI50 [28]: > 14.5 µM
TGI [28]: > 25 µM
GI50 [29]: 14.5 µM
TGI [29]: > 25 µM
GI50 [30]: > 23.6 µM
TGI [30]: > 25 µM
GI50 [31]: > 14.6 µM
TGI [31]: > 25 µM
GI50 [32]: > 18.4 µM
TGI [32]: > 25 µM
GI50 [33]: 1.97 µM
TGI [33]: > 25 µM
GI50 [34]: 9.43 µM
TGI [34]: > 25 µM
GI50 [35]: > 25 µM
TGI [35]: > 25 µM
GI50 [36]: 9.65 µM
TGI [36]: > 25 µM
GI50 [37]: 8 µM
TGI [37]: > 25 µM
GI50 [38]: > 25 µM
TGI [38]: > 25 µM
GI50 [39]: > 25 µM
TGI [39]: > 25 µM
GI50 [40]: > 20.3 µM
TGI [40]: > 25 µM
GI50 [41]: 10.7 µM
TGI [41]: > 25 µM
GI50 [42]: > 23.7 µM
TGI [42]: > 25 µM
GI50 [43]: 8.95 µM
TGI [43]: > 25 µM
GI50 [44]: 16.3 µM
TGI [44]: > 25 µM
GI50 [45]: > 21.9 µM
TGI [45]: > 25 µM
GI50 [46]: > 25 µM
TGI [46]: > 25 µM
GI50 [58]: 15.5 µM
TGI [58]: > 25 µM
GI50 [47]: > 25 µM
TGI [47]: > 25 µM
GI50 [48]: > 20.9 µM
TGI [48]: > 25 µM
GI50 [49]: > 25 µM
TGI [49]: > 25 µM
GI50 [50]: 10.6 µM
TGI [50]: > 25 µM
GI50 [57]: 9.76 µM
TGI [57]: > 25 µM
GI50 [51]: 24.5 µM
TGI [51]: > 25 µM
GI50 [52]: 24.9 µM
TGI [52]: > 25 µM
GI50 [53]: 6.74 µM
TGI [53]: > 25 µM
GI50 [54]: > 25 µM
TGI [54]: > 25 µM
GI50 [55]: 12.7 µM
TGI [55]: > 25 µM
GI50 [56]: 13 µM
TGI [56]: > 25 µM

Source: PubChem BioAssay (NCI)
